In patent US20200171015A1, “METHODS OF TREATMENT FOR CYSTIC FIBROSIS” (Vertex Pharmaceuticals Incorporated, priority 2017, published 2020):
Marks after values point to notes of the source that are not given here.

Tests used:
[1] = Preclinical reproductive toxicology studies; conditions: in vivo
[2] = Previous studies of Compound I, safety and tolerability; assay type: in vivo, human
[3] = test system: people with CF who have one F508del mutation and one minimal function mutation (F/MF); assay: Phase 2 study Part 1: efficacy (ppFEV1, sweat chloride, CFQ-R); assay type: in vivo, human; conditions: Part 1 F/MF
Description: (§1) The safety of Compound I in triple combination with Compounds II and III is evaluated in CF subjects in a 2-part, randomized, double-blind, placebo- and Compound II/III-controlled, parallel-group, multicenter study. Parts 1 and 2 include a Screening Period, a 2-week Treatment Period, and a Safety Follow-up Visit. Part 2 also includes a 4-week Run-in Period before the Treatment Period and a 2-week Washout Period after the Treatment Period.
In Part 1, three dose levels of Compound I (100, 200, and 300 mg q12h) in triple combination with Compound II (100 mg qd) and Compound III (150 mg q12h) is evaluated in subjects with the F508del/MF genotype.
Part 1 has three cohorts (Cohorts IA, IB, and IC). In Cohort 1A, the triple combination of Compound I at 100 mg q12h, Compound II at 100 mg qd, and Compound III at 150 mg q12h is evaluated in subjects with the F508del/MF genotype. In Cohort IB, the triple combination of Compound I at 200 mg q12h, Compound II at 100 mg qd, and Compound III at 150 mg q12h is evaluated in subjects with the F508del/MF genotype. In Cohort IC, the triple combination of Compound I at 300 mg q12h, Compound II at 100 mg qd, and Compound III at 150 mg q12h is evaluated in subjects with the F508del/MF genotype. Triple placebo is the comparator for all three cohorts
(§2) Primary endpoints for the study include: safety and tolerability assessments based on adverse events (AEs), clinical laboratory values, standard 12-lead electrocardiograms (ECGs), vital signs, and pulse oximetry. Secondary endpoints include: absolute change in sweat chloride concentrations from baseline at Day 15; absolute change in percent predicted forced expiratory volume in 1 second (ppFEV1) from baseline at Day 15; relative change in ppFEV1 from baseline at Day 15; absolute change in Cystic Fibrosis Questionnaire-Revised (CFQ-R) respiratory domain score from baseline at Day 15; and PK parameters of Compound I, Compound II, Compound III, and metabolites of Compounds II and III.
(§3) In this Phase 2 randomized, double-blind study, Compound I (100 mg, 200 mg and 300 mg q12h) in combination with Compound II (100 mg qd) and Compound III (150 mg q12h) in people with CF ages 18 and older who have one F508del mutation and one minimal function mutation and in people who have two copies of the F508del mutation was studied. Primary endpoints as described above in Example 6 were for safety and tolerability. Secondary endpoints included absolute change in ppFEV1 and change in sweat chloride.
In Part 1 of the study, the triple combination was evaluated for two weeks in 34 patients ages 18 and older who had one F508de/mutation and one minimal function mutation (8 in combined placebo, 6 in Compound I 100 mg, 10 in Compound 1 200 mg, and 10 in Compound 1 300 mg). A summary of the within-group ppFEV (primary endpoint) and sweat chloride data (secondary endpoint) through Day 15 is provided below.

[4] = test system: people with CF who have two copies of the F508del mutation (F/F); assay: Phase 2 study Part 2: efficacy (ppFEV1, sweat chloride); assay type: in vivo, human; conditions: Part 2 F/F
Description: as §1
In Part 2, two dose levels of Compound I (200 and 300 mg q12h) in triple combination with Compound II (100 mg qd) and Compound III (150 mg q12h) is evaluated in subjects with the F508del/F508del genotype.
Part 2 has two cohorts (Cohorts 2A and 2B). In Cohort 2A, the triple combination of Compound I at 200 mg q12h, Compound II at 100 mg qd, and Compound III at 150 mg q12h is evaluated in subjects with the F508del/F508del genotype. In Cohort 2B, the triple combination of Compound I at 300 mg q12h, Compound II at 100 mg qd, and Compound III at 150 mg q12h is evaluated in subjects with the F508del/F508del genotype. The combination of placebo, Compound II, and Compound III is the comparator for both cohorts.
as §2, §3
In Part 2 of the study, the triple combination was evaluated for two weeks in 14 patients ages 18 and older who had two copies of the F508del mutation, who were already receiving the combination of Compound II and Compound III (4 weeks, 4 in placebo and 10 in Compound I 200 mg). A summary of the within-group lung function (ppFEV) (primary endpoint) and sweat chloride data (secondary endpoint) for the triple combination treatment period, from baseline (end of the 4-week Compound II/Compound III run-in period), through Day 15 is provided below.
A summary of the within-group lung function (ppFEV) (primary endpoint) and sweat chloride data (secondary endpoint) from patients in Part 2 of the study who received the triple combination including 300 mg of Compound I for 4 weeks is provided below.

[5] = Example 4: randomized, double-blind, placebo-controlled single- and multiple-dose escalation study, safety and tolerability; assay type: in vivo, human; conditions: healthy volunteers
Source text: A randomized, double-blind, placebo-controlled, single- and multiple-dose, dose-escalation study was conduced in healthy volunteer subjects. Subjects were randomized to receive Compound I or placebo (Part A and Part B), and triple combination of Compound I, Compound II, and Compound III, or triple placebo (Part C).

CFTR = conditions: disclosed in PCT Publication No. WO 2016/057572; cited from earlier work
[6] = Compound I 100 mg in triple combination with Compound II and Compound III, n 6
[7] = Compound I 200 mg in triple combination with Compound II and Compound III, n 10
[8] = Compound I 300 mg in triple combination with Compound II and Compound III, n 21

In the case of `CC(C)COc1cc(F)cc(-c2ccc(C(=O)NS(=O)(=O)c3cccc(N)n3)c(N3C[C@@H](C)CC3(C)C)n2)c1` [Compound I, N-[(6-amino-2-pyridyl)sulfonyl]-6-(3-fluoro-5-isobutoxy-phenyl)-2-[(4S)-2,2,4-trimethylpyrrolidin-1-yl]pyridine-3-carboxamide], the “Findings in preclinical reproductive toxicology studies” value [1] is reported as “no adverse findings of note”, the Safety and tolerability ([2]; multiple doses up to 300 mg q12h in combination with Compound II (100 mg qd) and Compound III (150 mg q12h), after 14 days of dosing) is reported as “generally safe and tolerated” and the Safety and tolerability ([2]; single doses up to 2000 mg and multiple doses up to 400 mg q12h) is reported as “generally safe and well tolerated”. The Hemolysis ([2]; subjects with glucose-6-phosphate dehydrogenase (G6PD) deficiency) was “treatment-emergent hemolysis in a subject who was found to have glucose-6-phosphate dehydrogenase (G6PD) deficiency”, the “Sweat Chloride, Abs. Change from Baseline, Day 15 Results” value [3, 6] was −19.5 and the “ppFEV1, Abs. Change from Baseline, Day 15 Results” value [3, 6] was 5.7. For the same compound, the “ppFEV1, Abs. Change from Baseline, Day 15 Results” value [3, 7] was 9.7, the “Sweat Chloride, Abs. Change from Baseline, Day 15 Results” value ([3]; Compound I 200 mg in triple combination with Compound II and Compound III, n 10, missing data from 2 subjects) was −13.6^a and the “Sweat Chloride, Abs. Change from Baseline, Day 15 Results” value ([3]; Compound I 300 mg in triple combination with Compound II and Compound III, n 10) was −27.5. For the same compound, the “ppFEV1, Abs. Change from Baseline, Day 15 Results” value ([3]; Compound I 300 mg in triple combination with Compound II and Compound III, n 10, missing data from 2 subjects) was 8.0^a, the “Sweat Chloride, Abs. Change from Baseline, Day 15 Results” value [4, 7] was −21.3 and the “ppFEV1, Abs. Change from Baseline, Day 15 Results” value [4, 7] was 7.3. For the same compound, the “Sweat Chloride, Abs. Change from Baseline, Day 15 Results” value [4, 8] was −23.9, the “Sweat Chloride, Abs. Change from Baseline, Day 29 Results” value [4, 8] was −22.3 and the “ppFEV1, Abs. Change from Baseline, Day 15 Results” value [4, 8] was 5.1. For the same compound, the “ppFEV1, Abs. Change from Baseline, Day 29 Results” value [4, 8] was 6.5, the “Deaths, serious or severe adverse events” value ([5]; all parts of the study) was “no deaths or serious or severe adverse events” and the “Severity of adverse events” value ([5]; all parts of the study) was “mild or moderate”. The Dose-limiting adverse events ([5]; multiple doses of 800 mg q12h) was “Dose-limiting adverse events were observed”, the Tolerability ([5]; multiple doses up to 400 mg q12h for 14 days) was “well tolerated” and the Tolerability ([5]; single doses from 50 mg up to 2000 mg) was “well tolerated”. For the same compound, the Tolerability ([5]; up to 300 mg q12h in triple combination with Compound II (100 mg qd) and Compound III (150 mg q12h) for 13 days) was “well tolerated” and the “EC30 as CFTR modulator” value (CFTR) was less than 3000 nM.
